Laboratory results as given in ChEMBL document CHEMBL1201862, “PubChem BioAssay data set” (2004).
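Where inhibition never reached the appropriate level, the endpoint shown equals the highest concentration tested. Otherwise, values were interpolated linearly from a five-concentration, 48-hour dose response in 96-well plates. GI50 is the concentration that inhibits growth by half.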 Activity calls are given as the source filed them. Cut-off read from the data, not from the text of the source: active = GI50 up to about 1.1 µM and inactive = higher.

How the values were obtained:
Experiment in all cases: NCI tumour cell line growth inhibition, 48 h
NCI-H522 = tested on: NCI-H522
SF-268 = tested on: SF-268
MDA-MB-231 = tested on: MDA-MB-231
786-0 = tested on: 786-0
KM12 = tested on: KM12
HCC 2998 = tested on: HCC 2998
SW-620 = tested on: SW-620
UO-31 = tested on: UO-31
EKVX = tested on: EKVX
ACHN = tested on: ACHN
RXF 393 = tested on: RXF 393
SF-539 = tested on: SF-539
HCT-15 = tested on: HCT-15
HL-60 = tested on: HL-60
SK-MEL-28 = tested on: SK-MEL-28
SN12C = tested on: SN12C
A498 = tested on: A498
UACC-257 = tested on: UACC-257
HT-29 = tested on: HT-29

Compound	GI50 (NCI-H522)	GI50 (SF-268)	GI50 (MDA-MB-231)	GI50 (786-0)	GI50 (KM12)	GI50 (HCC 2998)	GI50 (SW-620)	GI50 (UO-31)	GI50 (EKVX)	GI50 (ACHN)	GI50 (RXF 393)	GI50 (SF-539)	GI50 (HCT-15)	GI50 (HL-60)	GI50 (SK-MEL-28)	GI50 (SN12C)	GI50 (A498)	GI50 (UACC-257)	GI50 (HT-29)
CS(=O)(=O)c1ccc(/N=C/C=C/Nc2ccc(S(C)(=O)=O)cc2)cc1	> 100 µM (inactive)	> 100 µM (inactive)	> 100 µM (inactive)	> 100 µM (inactive)	27.4 µM (inactive)	> 100 µM (inactive)	> 100 µM (inactive)	> 100 µM (inactive)	> 100 µM (inactive)	> 100 µM (inactive)	> 100 µM (inactive)	> 100 µM (inactive)	> 100 µM	> 100 µM (inactive)	> 100 µM (inactive)	> 100 µM (inactive)	> 100 µM (inactive)	> 100 µM (inactive)	> 100 µM (inactive)
CCOC(=O)C1(C/C=C/CBr)Cc2ccccc2C1=O (centres undefined)	1.63 µM (inactive)	2.91 µM (inactive)	4.7 µM (inactive)	3.85 µM (inactive)	3.07 µM (inactive)	9.02 µM (inactive)	2.58 µM (inactive)	1.96 µM (inactive)	14.6 µM (inactive)	2.43 µM (inactive)	1.55 µM (inactive)	1.81 µM (inactive)	2.24 µM	3.21 µM (inactive)	6.93 µM (inactive)	1.99 µM (inactive)	17.9 µM (inactive)	8.17 µM (inactive)	2.79 µM (inactive)
CCC(=O)NC(Nc1cc(C)on1)(C(F)(F)F)C(F)(F)F	> 100 µM (inactive)	> 100 µM (inactive)	> 100 µM (inactive)	> 100 µM (inactive)	> 100 µM (inactive)	> 100 µM (inactive)	> 100 µM (inactive)	97.9 µM (inactive)	> 100 µM (inactive)	> 100 µM (inactive)	> 100 µM (inactive)	> 100 µM (inactive)	> 100 µM	> 100 µM (inactive)	> 100 µM (inactive)	> 100 µM (inactive)	> 100 µM (inactive)	> 100 µM (inactive)	> 100 µM (inactive)
CC[C@@]1(O)C(=O)OCc2c1cc1n(c2=O)Cc2c-1nc1ccccc1c2/C=N\NC(=O)C(N)=O	0.333 µM (active)	< 0.0292 µM (active)	31.8 µM (inactive)	0.0705 µM (active)	> 92.3 µM (inactive)	2.25 µM (inactive)	1.42 µM (inactive)	0.284 µM (active)	19.5 µM (inactive)	< 0.0151 µM (active)	3.04 µM (inactive)	0.0217 µM (active)	14.7 µM	0.0582 µM (active)	17.8 µM (inactive)	0.172 µM (active)	0.457 µM (active)	14.4 µM (inactive)	4.36 µM (inactive)
O=C(Nc1ccc(Cl)c(C(F)(F)F)c1)C(=O)c1c(O)c2ccccc2oc1=O	> 100 µM (inactive)	> 100 µM (inactive)	> 100 µM (inactive)	> 100 µM (inactive)	> 100 µM (inactive)	> 100 µM (inactive)	> 100 µM (inactive)	> 100 µM (inactive)	> 100 µM (inactive)	> 100 µM (inactive)	> 100 µM (inactive)	> 100 µM (inactive)	> 100 µM	> 10 µM (inactive)	> 100 µM (inactive)	> 100 µM (inactive)	> 100 µM (inactive)	> 100 µM (inactive)	> 100 µM (inactive)
Cn1c(=O)n2n(c1=O)Cc1cccc3cccc(c13)C2	> 100 µM (inactive)	> 100 µM (inactive)	> 100 µM (inactive)	> 100 µM (inactive)	> 100 µM (inactive)	> 100 µM (inactive)	> 100 µM (inactive)	63.8 µM (inactive)	> 100 µM (inactive)	> 100 µM (inactive)	53.6 µM (inactive)	> 100 µM (inactive)	> 100 µM	1.82 µM (inactive)	> 100 µM (inactive)	> 100 µM (inactive)	> 100 µM (inactive)	> 100 µM (inactive)	> 100 µM (inactive)
CCNC(=O)Cc1nc2c(O)ncnc2n1C1OC(CO)C(O)C1O (centres undefined)	> 100 µM (inactive)	> 100 µM (inactive)	> 100 µM (inactive)	> 100 µM (inactive)	> 100 µM (inactive)	> 100 µM (inactive)	> 100 µM (inactive)	> 100 µM (inactive)	> 100 µM (inactive)	> 100 µM (inactive)	> 100 µM (inactive)	> 100 µM (inactive)	> 100 µM	> 100 µM (inactive)	> 100 µM (inactive)	> 100 µM (inactive)	> 100 µM (inactive)	> 100 µM (inactive)	> 100 µM (inactive)
c1ccc(C2C(=P(c3ccccc3)(c3ccccc3)c3ccccc3)P=PC2[P+](c2ccccc2)(c2ccccc2)c2ccccc2)cc1.c1ccc([B-](c2ccccc2)(c2ccccc2)c2ccccc2)cc1 (centres undefined)	0.424 µM (active)	0.695 µM (active)	0.39 µM (active)	0.289 µM (active)	0.351 µM (active)	0.593 µM (active)	0.767 µM (active)	18.8 µM (inactive)	4.79 µM (inactive)	0.701 µM (active)	0.285 µM (active)	0.656 µM (active)	28.1 µM	0.107 µM (active)	1.85 µM (inactive)	0.507 µM (active)	0.818 µM (active)	1.12 µM (inactive)	0.354 µM (active)
COc1ccc(NC2Oc3cc4c(cc3C(c3cccc(OC)c3OC)C2C)OCO4)cc1 (centres undefined)	6.24 µM (inactive)	10.1 µM (inactive)	16.7 µM (inactive)	7.96 µM (inactive)	6.68 µM (inactive)	43.5 µM (inactive)	5.83 µM (inactive)	5.85 µM (inactive)	18.5 µM (inactive)	4.59 µM (inactive)	3.72 µM (inactive)	17.7 µM (inactive)	2.96 µM	3.22 µM (inactive)	16.3 µM (inactive)	6.19 µM (inactive)	10.9 µM (inactive)	4.46 µM (inactive)	6.85 µM (inactive)
NCCCNC1(c2cc3ccccc3s2)CCCCC1	3.21 µM (inactive)	9.93 µM (inactive)	3.86 µM (inactive)	2 µM (inactive)	3.22 µM (inactive)	1.55 µM (inactive)	4.55 µM (inactive)	1.93 µM (inactive)	8.65 µM (inactive)	11.9 µM (inactive)	4.17 µM (inactive)	2.38 µM (inactive)	4.49 µM	2.64 µM (inactive)	2.12 µM (inactive)	10.5 µM (inactive)	2.72 µM (inactive)	1.64 µM (inactive)	2.95 µM (inactive)
Clc1ccc2c(NCCNc3ccnc4cc(Cl)ccc34)ccnc2c1	18.3 µM (inactive)	25.9 µM (inactive)	17 µM (inactive)	14.3 µM (inactive)	18.2 µM (inactive)	15.2 µM (inactive)	13.6 µM (inactive)	15.7 µM (inactive)	19.2 µM (inactive)	17.8 µM (inactive)	20 µM (inactive)	12 µM (inactive)	15.6 µM	14.6 µM (inactive)	17.3 µM (inactive)	17.8 µM (inactive)	16.9 µM (inactive)	17.9 µM (inactive)	15.3 µM (inactive)
COC(=O)c1c(O)ccc2[nH]c3c(O)c4ccccc4cc3c12	32 µM (inactive)	21.9 µM (inactive)	75 µM (inactive)	32 µM (inactive)	16 µM (inactive)	13.9 µM (inactive)		26.8 µM (inactive)	16.8 µM (inactive)	27.9 µM (inactive)	31.3 µM (inactive)	21.4 µM (inactive)	20.5 µM	14.1 µM (inactive)	35 µM (inactive)	43.6 µM (inactive)	41.4 µM (inactive)	34.1 µM (inactive)	33.3 µM (inactive)
O=C1c2cc([N+](=O)[O-])sc2C(=O)c2cc([N+](=O)[O-])sc21	1.44 µM (inactive)	3.63 µM (inactive)	2.07 µM (inactive)	2.52 µM (inactive)	3.61 µM (inactive)	3.05 µM (inactive)	1.72 µM (inactive)	3.19 µM (inactive)	3.13 µM (inactive)	3.85 µM (inactive)	6.03 µM (inactive)	3.2 µM (inactive)	1.73 µM	0.0957 µM (active)	3.23 µM (inactive)	2.8 µM (inactive)	16.2 µM (inactive)	5.16 µM (inactive)	3.24 µM (inactive)
O=C(N/N=C\c1cccc2ccccc12)Nc1cccc2ccccc12	18.6 µM (inactive)	63.4 µM (inactive)	16 µM (inactive)	11.7 µM (inactive)	11 µM (inactive)	33.7 µM (inactive)	10.6 µM (inactive)	76.9 µM (inactive)	84.7 µM (inactive)	23.2 µM (inactive)	14.1 µM (inactive)	10.7 µM (inactive)	5.73 µM	4.32 µM (inactive)	32.9 µM (inactive)	41.9 µM (inactive)	15.7 µM (inactive)	27.3 µM (inactive)	4.17 µM (inactive)
COC1=C(NC(C)=O)C(=O)c2nc3n(c2C1=O)CCC3	22.5 µM (inactive)	17.7 µM (inactive)	13.3 µM (inactive)	19.5 µM (inactive)	25.7 µM (inactive)	23.7 µM (inactive)	20.9 µM (inactive)	24.9 µM (inactive)	19.5 µM (inactive)	19.9 µM (inactive)	17.7 µM (inactive)	18.6 µM (inactive)	23.4 µM	10.1 µM (inactive)	18.7 µM (inactive)	17.9 µM (inactive)	23.6 µM (inactive)	16.6 µM (inactive)	26.5 µM (inactive)
